According to patent US20260364057A1, “AMIDE COMPOUND, AND COMPOSITION AND USE THEREOF” (SIMCERE ZAIMING PHARMACEUTICAL CO., LTD., priority 2022, published 2026):
pIC50: −log10 of the molar value.

Experiments:
OVCAR3 cells = assay: Inhibition of proliferation of OVCAR-3 cells (Cell-Titer Glo); assay type: cell-based; details: Homo sapiens, OVCAR-3, 72 h, 3 days, 1000 cells/well
Description: Test Example 2. Test on Inhibition of Proliferation of OVCAR-3 Cells by Compounds of Present Disclosure
Cell and material: The human ovarian cancer cell line OVCAR3 was purchased from ATCC (Cat. No. HTB-161™), RPMI 1640 medium (Gibco #A1049101), penicillin-streptomycin (Gibco #15140122), and 0.25% Trypsin-EDTA (Gibco #25200056) were purchased from Gibco (U.S.), bovine insulin (Yeasen #40107ES60) was purchased from Yeasen, 384-well plates (Corning #CLS3765) was purchased from Corning (U.S.), and Cell-Titer Glo reagent (Promega #G7568) was purchased from Promega (U.S.).
Cell culture: OVCAR3 cells were cultured in RPMI 1640 complete medium (RPMI 1640 medium containing 20% fetal bovine serum, […] bovine insulin, and 1% penicillin-streptomycin) in an incubator (37 °C, 5% CO2), and the cells could be used in experiments when in the logarithmic growth phase.
Cell proliferation activity test: The Cell-Titer Glo reagent was used to test the compound for inhibition of proliferation of the OVCAR3 cell strain. The compound formulated with DMSO and pure DMSO (control) were each added to a 384-well plate using an Echo instrument; the compound was subjected to 3-fold serial dilution starting from 30 μM to obtain 11 concentration points, and the volume of the compound or DMSO added was 100 nL.
OVCAR3 cells were digested and resuspended in RPMI 1640 complete medium, and the suspension was added to a 384-well plate (1000 cells/50 μL/well) to be well mixed with the compound. The mixture was incubated in an incubator (37 °C, 5% CO2) for 3 days. The Cell-Titer Glo reagent was added at 25 µL/well, and the resulting mixture was well mixed by shaking and then incubated for 10 min. The Cell-Titer Glo readings were measured with a Multimode Plate Reader (brand: PerkinElmer; model: SIC-PV-018).
A negative control group (Bottom) was set, and the negative control group was medium wells with 0.2% DMSO added and was defined as 100% proliferation inhibition; the positive control group (Top) was OVCAR3 cell wells with 0.2% DMSO added.
The percent proliferation inhibition (% Inhibition) was calculated, and the curves were fit using the four-parameter equation, Y=Bottom+(Top−Bottom)/(1+(IC50/X)^HillSlope), to obtain the proliferation inhibition IC50 of the compound. • Percent inhibition: % Inhibition=(1−(Signal−Bottom)/(Top−Bottom))×100%. • Signal: Cell-Titer Glo reading of wells with compound added; • Bottom: Cell-Titer Glo reading of negative control wells; • Top: Cell-Titer Glo reading of positive control wells.

Human KIF18A (1-376aa) = target: T1, Human KIF18A (1-376aa) (Homo sapiens, UniProt Q8NI77); assay: KIF18A enzyme activity assay (ADP-Glo); assay type: biochemical; details: microtubule 50 μg/mL, ATP (Km 70 μM), room temperature, 15 min, read-out: KIF18A inhibitory activity IC50
T1 construct: Human KIF18A (1-376aa) protease used in the experiments; purchased Shanghai Panchao Biotechnology Co., Ltd
T1 sequence (Q8NI77 1-376): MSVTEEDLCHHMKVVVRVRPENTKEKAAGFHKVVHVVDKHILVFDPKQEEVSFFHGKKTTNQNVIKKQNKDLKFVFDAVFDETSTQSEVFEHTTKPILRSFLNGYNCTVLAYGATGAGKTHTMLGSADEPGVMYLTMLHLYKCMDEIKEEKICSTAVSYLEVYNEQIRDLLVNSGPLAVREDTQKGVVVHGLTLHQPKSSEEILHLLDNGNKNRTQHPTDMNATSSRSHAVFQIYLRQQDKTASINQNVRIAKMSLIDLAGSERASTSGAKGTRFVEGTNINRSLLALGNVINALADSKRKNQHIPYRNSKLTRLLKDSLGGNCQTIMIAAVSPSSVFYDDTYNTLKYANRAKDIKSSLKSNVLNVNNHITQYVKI
Protocol: Test Example 1: KIF18A Enzyme Activity Assay
Based on the ADP-Glo™ Kinase Assay, the ADP amount generated in the reaction was detected to reflect the enzyme activity of KIF18A.
Human KIF18A (1-376aa) […] used in the experiments, expressed by Shanghai Panchao Biotechnology Co., Ltd., was stored at −80 °C (no more than 5 freeze-thaw cycles).
The assay kit (ADP-Glo™ Kinase Assay) was purchased from Promega (Cat. No. V9101) and stored at −30 °C. The kit detects the enzyme activity by measuring ADP generated in enzyme reaction. The KIF18A enzyme and ATP generate ADP. The remaining ATP in this reaction is consumed by the ADP-Glo reagent, while the ADP generated by the KIF18A enzyme reaction is converted back to ATP by the assay reagent. The ATP then reacts with luciferin in the presence of Ultra-Glo™ luciferase, producing luminescence. The luminescent signal is positively correlated with the activity of the KIF18A enzyme.
Compounds were each subjected to 3-fold serial dilution starting from 10 μM to obtain 10 concentration points. The compounds and pure DMSO (control) were pipetted into wells of a 384-well plate using an Echo instrument, and the total volume of compound and DMSO was 100 nL; sample concentrations of gradient dilution were obtained by the instrument based on different ratios. Preparation of a KIF18A enzyme reaction buffer: […], 10 mM MgCl2, 0.01% Pluronic F-68, 1 μM Taxol, and 50 μg/mL Microtubule. KIF18A and the enzyme reaction buffer were mixed, and then the mixed solution was added to the 384-well plate and incubated at room temperature for 15 min. ATP (Km 70 μM) was then added to the mixed solution, and the mixed solution was incubated at room temperature for 15 min. 10 μL of ADP-Glo™ Reagent was well mixed with 10 μL of the mixed solution, and the mixture was incubated at room temperature for 40 min. Finally, 20 μL of ADP-Glo™ Detection Reagent was added, and the mixture was incubated at room temperature for 30 min. The chemiluminescent signal in each well was measured using an Envision plate reader (PerkinElmer, emission wavelength: 400-700 nm). In the experiment, 1 column of wells with no compound and no enzyme (chemiluminescence value was taken as [RLU]background) and 1 column of wells with enzyme but no compound (chemiluminescence value was taken as [RLU]enzyme) were provided. The chemiluminescence value of the compound adding group was taken as [RLU]cpd. The inhibition rate of the compound on […] was calculated according to the following equation: inhibition rate (%)=([RLU]enzyme−[RLU]cpd)/([RLU]enzyme−[RLU]background)×100%, and the inhibitory activity IC50 value of the compound on the enzyme activity was calculated using a four-parameter Logistic Model method. In the following equation, x represents the logarithmic form of the concentration of compound, and f (x) represents an effect value (inhibition rate of enzyme activity at the concentration): F(x)=(A+((B−A)/(1+((C/x)^D)))). A. B, C, and D are four parameters.

Compound | pIC50 (OVCAR3 cells) | pIC50 (Human KIF18A (1-376aa))
O=C(Nc1cccc2c1nc1n2CCCC1)c1ccc(NS(=O)(=O)CCO)cc1N1CCC2(CC1)CC2 [Compound 12] | 7.02 | > 6.70
O=C(Nc1cc2nccn2c(N2CCC(F)(F)CC2)n1)c1ccc(NS(=O)(=O)CCO)cc1N1CCC2(CC1)CC2 [Compound 14] | 7.11 | –
O=C(Nc1cc2c(c(N3CCC(F)(F)CC3)c1)OCC2)c1ccc(NS(=O)(=O)CCO)cc1N1CCC2(CC1)CC2 [Compound 28] | 8.44 | > 6.70
O=C(Nc1cccn2c3c(nc12)CCCCC3)c1ccc(NS(=O)(=O)CCO)cc1N1CCC2(CC1)CC2 [Compound 29] | 7.16 | > 6.70
O=C(Nc1cccc2c1nc1n2CCOC1)c1ccc(NS(=O)(=O)CCO)cc1N1CCC2(CC1)CC2 [Compound 34] | 7.64 | > 6.70
O=C(Nc1cccc2c1nc1n2CC2CCC1C2)c1ccc(NS(=O)(=O)CCO)cc1N1CCC2(CC1)CC2 (stereo not drawn) [Compound 35] | 7.06 | > 6.70
O=C(Nc1cccc2c1nc1n2CC2CCC1O2)c1ccc(NS(=O)(=O)CCO)cc1N1CCC2(CC1)CC2 (stereo not drawn) [Compound 40] | 7.44 | > 6.70
O=C(Nc1cc2c(c(N3CCC(F)(F)CC3)c1)CCC2)c1ccc(NS(=O)(=O)CCO)cc1N1CCC2(CC1)CC2 [Compound 41] | 7.77 | > 6.70
O=C(Nc1cn2ccnc2c(N2CCC(F)(F)CC2)n1)c1ccc(NS(=O)(=O)CCO)cc1N1CCC2(CC1)CC2 [Compound 44] | 8.04 | > 6.70
O=C(Nc1cc(N2CCC(F)(F)CC2)c2occc2c1)c1ccc(NS(=O)(=O)CCO)cc1N1CCC2(CC1)CC2 [Compound 45] | 8.18 | > 6.70
N#Cc1ccc(NC(=O)c2ccc(NS(=O)(=O)CCO)cc2N2CCC3(CC2)CC3)c2nc3n(c12)CCCC3 [Compound 50] | 7.31 | > 6.70
CC1OCCn2c1nc1c(NC(=O)c3ccc(NS(=O)(=O)CCO)cc3N3CCC4(CC3)CC4)cccc12 (stereo not drawn) [Compound 56] | 7.51 | > 6.70
Cn1cc(NC(=O)c2ccc(NS(=O)(=O)CCO)cc2N2CCC3(CC2)CC3)nc(N2CCC(F)(F)CC2)c1=O [Compound 58] | 8.10 | > 6.70
O=C(Nc1cccc2c1nc1n2C2CC2CC1)c1ccc(NS(=O)(=O)CCO)cc1N1CCC2(CC1)CC2 (stereo not drawn) [Compound 69] | – | > 6.70
O=C(Nc1cccc2c1nc1n2CCC12CC2)c1ccc(NS(=O)(=O)CCO)cc1N1CCC2(CC1)CC2 [Compound 85] | – | > 6.30
O=C(Nc1cccc2c1nc1n2C2CC2C1)c1ccc(NS(=O)(=O)CCO)cc1N1CCC2(CC1)CC2 (stereo not drawn) [Compound 90] | – | > 6.70

Now from value to compound:

pIC50 (OVCAR3 cells) | pIC50 (Human KIF18A (1-376aa)) | Compound
7.28 | > 6.70 | O=C(Nc1cccc2c1nc1n2CCCCC1)c1ccc(NS(=O)(=O)CCO)cc1N1CCC2(CC1)CC2 [Compound 24]
7.12 | > 6.70 | O=C(Nc1cccc2c1nc1n2CCCC1)c1ccc(S(=O)(=O)NCCO)cc1N1CCC2(CC1)CC2 [Compound 39]
7.58 | > 6.70 | O=C(Nc1cc2c(c3c1nc1n3CCCC1)OCC2)c1ccc(NS(=O)(=O)CCO)cc1N1CCC2(CC1)CC2 [Compound 42]
7.25 | > 6.70 | O=C(Nc1cccc2c1nc1n2C2CCC1CC2)c1ccc(NS(=O)(=O)CCO)cc1N1CCC2(CC1)CC2 [Compound 47]
7.69 | > 6.70 | O=C(Nc1cccc2c1nc1n2CC2CC12)c1ccc(NS(=O)(=O)CCO)cc1N1CCC2(CC1)CC2 (stereo not drawn) [Compound 48]
7.30 | > 6.70 | O=C(Nc1cccc2c1nc1n2CCC(F)(F)CC1)c1ccc(NS(=O)(=O)CCO)cc1N1CCC2(CC1)CC2 [Compound 49]
7.17 | > 6.70 | O=C(Nc1cc2c(c(N3CCOCC3)c1)OCC2)c1ccc(NS(=O)(=O)CCO)cc1N1CCC2(CC1)CC2 [Compound 51]
7.68 | > 6.70 | O=C(Nc1cccc2c1nc1n2CCOCC1)c1ccc(NS(=O)(=O)CCO)cc1N1CCC2(CC1)CC2 [Compound 53]
7.68 | > 6.70 | O=C(Nc1cccc2c1nc1n2CCCOC1)c1ccc(NS(=O)(=O)CCO)cc1N1CCC2(CC1)CC2 [Compound 54]
7.76 | > 6.70 | CC1Cn2c(nc3c(NC(=O)c4ccc(NS(=O)(=O)CCO)cc4N4CCC5(CC4)CC5)cccc32)CO1 (stereo not drawn) [Compound 55]
7.63 | > 6.70 | O=C(Nc1cccc2c1nc1n2CC2CC1O2)c1ccc(NS(=O)(=O)CCO)cc1N1CCC2(CC1)CC2 (stereo not drawn) [Compound 59]
– | > 6.70 | O=C(Nc1ccc(=O)n(C2=CCC(F)(F)CC2)n1)c1ccc(NS(=O)(=O)CCO)cc1N1CCC2(CC1)CC2 [Compound 75]
– | > 6.70 | Cc1cc(NC(=O)c2ccc(NS(=O)(=O)CCO)cc2N2CCC3(CC2)CC3)c2nc3n(c2n1)CCCCC3 [Compound 79]
– | > 6.30 | O=C(Nc1cccc2c1nc1n2CC2(CC2)C1)c1ccc(NS(=O)(=O)CCO)cc1N1CCC2(CC1)CC2 [Compound 84]
– | > 6.30 | CN1CCn2c(nc3c(NC(=O)c4ccc(NS(=O)(=O)CCO)cc4N4CCC5(CC4)CC5)cccc32)C1 [Compound 89]
– | > 6.70 | O=C(Nc1cccc2c1nc1n2CCC2(CC2)C1)c1ccc(NS(=O)(=O)CCO)cc1N1CCC2(CC1)CC2 [Compound 91]
– | > 6.70 | O=C(Nc1cn(C2CC2)c(=O)c(N2CCC(F)(F)CC2)n1)c1ccc(NS(=O)(=O)CCO)cc1N1CCC2(CC1)CC2 [Compound 93]
– | > 6.70 | CC1(C)C2Cn3c(nc4c(NC(=O)c5ccc(NS(=O)(=O)CCO)cc5N5CCC6(CC5)CC6)cccc43)C21 (stereo not drawn) [Compound 95]
